Laboratory results as given in PubChem BioAssay (NCI).
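Interpolation was linear, between the two tested concentrations surrounding the appropriate level; five concentrations were tested over 48 hours in 96-well plates. GI50: concentration for 50% inhibition of growth. At the TGI there is no net growth.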

Columns and labels:
Experiment in all cases: NCI anticancer screen, dose series, 48 h
HOP-92 NSCLC = system: HOP-92 NSCLC
MALME-3M melanoma = system: MALME-3M melanoma
RXF 393 renal = system: RXF 393 renal
A498 renal = system: A498 renal
SNB-75 CNS = system: SNB-75 CNS
SK-MEL-5 melanoma = system: SK-MEL-5 melanoma
MDA-MB-435 = system: MDA-MB-435
BT-549 breast = system: BT-549 breast
OVCAR-4 ovarian = system: OVCAR-4 ovarian
NCI-H522 lung = system: NCI-H522 lung

Structure (SMILES) | GI50 (HOP-92 NSCLC) | TGI (HOP-92 NSCLC) | GI50 (MALME-3M melanoma) | TGI (MALME-3M melanoma) | GI50 (RXF 393 renal) | TGI (RXF 393 renal) | GI50 (A498 renal) | TGI (A498 renal) | GI50 (SNB-75 CNS) | TGI (SNB-75 CNS) | GI50 (SK-MEL-5 melanoma) | TGI (SK-MEL-5 melanoma) | GI50 (MDA-MB-435) | TGI (MDA-MB-435) | TGI (BT-549 breast) | TGI (OVCAR-4 ovarian) | TGI (NCI-H522 lung) | GI50 (BT-549 breast) | GI50 (OVCAR-4 ovarian) | GI50 (NCI-H522 lung)
CCc1ccc(OCc2ccccc2C(=O)Nc2ccc3nc(C)cc(N)c3c2)cc1 | 1.16 µM | 2.55 µM | 1.74 µM | 3.35 µM | 1.32 µM | 2.75 µM | 1.5 µM | 3 µM | 1.28 µM | 2.59 µM | 1.54 µM | 2.91 µM | 1.43 µM | 2.77 µM | – | – | – | – | – | –
COc1cc2c3cc1Oc1cc(ccc1O)C[C@@H]1c4c(cc(OC)c(O)c4Oc4ccc(cc4)C[C@@H]3[N+](C)(C)CC2)CC[N+]1(C)C | – | > 100 µM | – | 74.4 µM | – | 47 µM | – | > 100 µM | – | – | – | > 100 µM | – | > 100 µM | > 100 µM | > 100 µM | > 100 µM | – | – | –
C=CCN(c1cc(OC)c2[nH]c(C(=O)O)c(C)c2c1[N+](=O)[O-])S(C)(=O)=O | – | – | – | 52.3 µM | – | > 100 µM | – | > 100 µM | – | > 100 µM | – | > 100 µM | – | > 100 µM | > 100 µM | > 100 µM | > 100 µM | – | – | –
O=C(O)CCSc1ncnc2nc[nH]c12 | – | 96.3 µM | – | > 100 µM | – | > 100 µM | – | > 100 µM | – | – | – | > 100 µM | – | > 100 µM | > 100 µM | > 100 µM | > 100 µM | – | – | –
Fc1ccc(OCc2ccc3nc(-c4ccccc4)c(Cl)nc3c2)cc1 | – | 50.1 µM | – | 35.9 µM | – | – | – | 50.1 µM | – | 42.8 µM | – | > 100 µM | – | > 100 µM | 85.8 µM | > 100 µM | 24.4 µM | – | – | –
O=C(O)C12C3C4(C(=O)O)C1C1(C(=O)O)C2C3(C(=O)O)C41 (centres undefined) | – | > 100 µM | – | > 100 µM | – | – | – | > 100 µM | – | > 100 µM | – | > 100 µM | – | > 100 µM | > 100 µM | > 100 µM | > 100 µM | – | – | –
COc1cccc(Nc2nc3c([nH]2)c(=O)n(C)c(=O)n3C)c1 | – | > 10 µM | – | > 10 µM | – | > 10 µM | – | – | – | > 10 µM | – | > 10 µM | – | > 10 µM | – | > 10 µM | – | – | – | –
O/N=C/[C@H]1COC2(CCCCC2)O1 | – | > 100 µM | – | > 100 µM | – | – | – | > 100 µM | – | > 100 µM | – | > 100 µM | – | > 100 µM | – | > 100 µM | – | – | – | –
C[C@@](Br)(C(=O)O)[C@H](Br)C(=O)O | – | > 100 µM | – | > 100 µM | – | > 100 µM | – | > 100 µM | – | > 100 µM | – | > 100 µM | – | > 100 µM | > 100 µM | > 100 µM | – | – | – | –
Cn1c(=O)c2[nH]c(Nc3cccc(Cl)c3)nc2n(C)c1=O | – | 6.56 µM | – | > 10 µM | – | 8.76 µM | – | – | – | > 10 µM | – | > 10 µM | – | > 10 µM | – | > 10 µM | – | – | – | –
Fc1cccc(F)c1C1SCc2nc3cc(Cl)ccc3n21 (centres undefined) | – | > 100 µM | – | > 31.6 µM | – | > 100 µM | – | – | – | > 100 µM | – | 30.3 µM | – | > 100 µM | > 45.6 µM | > 100 µM | > 100 µM | – | – | –
CC1=[N+]([O-])C2(CCCC2)N(O)C1(C)C | – | > 100 µM | – | > 100 µM | – | > 100 µM | – | – | – | – | – | > 100 µM | – | > 100 µM | – | > 100 µM | – | – | – | –
CCOP(=O)(COCCn1nc(Br)c(=O)[nH]c1=O)OCC | – | > 100 µM | – | > 100 µM | – | > 100 µM | – | > 100 µM | – | > 100 µM | – | > 100 µM | – | > 100 µM | – | – | > 100 µM | – | – | –
Clc1sc(Cl)c2c1[C@H](Br)C[C@@H]2Cl | – | – | – | 49.4 µM | – | 87.6 µM | – | – | – | > 100 µM | – | > 100 µM | – | 40.8 µM | 40.3 µM | > 100 µM | 33.5 µM | – | – | –
O=c1cccc2n1CC1CNCC2C1 (centres undefined) | – | > 100 µM | – | > 100 µM | – | > 100 µM | – | > 100 µM | – | > 100 µM | – | > 100 µM | – | > 100 µM | > 100 µM | > 100 µM | – | – | – | –
Cc1ccc(S(=O)(=O)N2CCc3cc(O)c([N+](=O)[O-])cc32)cc1 | – | – | – | > 100 µM | – | > 100 µM | – | > 100 µM | – | > 100 µM | – | > 100 µM | – | > 100 µM | > 100 µM | > 100 µM | > 100 µM | – | – | –
O=C1c2cc3c(cc2-c2c1c1cc(F)c(F)cc1c(=O)n2C[C@H](O)CO)OCO3 | – | – | 0.196 µM | 0.916 µM | 0.121 µM | 0.335 µM | 0.0834 µM | 0.254 µM | – | – | 0.0307 µM | 0.116 µM | 0.125 µM | 0.422 µM | 2.22 µM | > 100 µM | 0.48 µM | 0.0727 µM | 0.423 µM | 0.0232 µM
CCOC(=O)OC1(c2ccccc2)CCN(C)CC1 | – | > 100 µM | – | > 100 µM | – | > 100 µM | – | > 100 µM | – | > 100 µM | – | > 100 µM | – | > 100 µM | – | > 100 µM | > 100 µM | – | – | –
CN(C)C(=O)/N=C1\SC(=Nc2ccccc2)C(=Nc2ccccc2)N1c1ccc([N+](=O)[O-])cc1 | – | – | – | > 100 µM | – | > 100 µM | – | > 100 µM | – | > 100 µM | – | > 100 µM | – | > 100 µM | > 100 µM | – | > 100 µM | – | – | –
CCc1nc2c([nH]1)C(=O)c1ccccc1C2=O | – | – | – | 49.5 µM | – | > 100 µM | – | > 100 µM | – | > 100 µM | – | – | – | – | – | > 100 µM | > 100 µM | – | – | –
O=c1ccn([C@@H]2C=C(CO)[C@@H](O)[C@H]2O)c(=O)[nH]1 | – | > 625 µM | – | > 625 µM | – | > 625 µM | – | – | – | 431 µM | – | > 625 µM | – | – | – | > 625 µM | > 625 µM | – | – | –
COc1ccc(CCn2ccc(=O)c(O)c2C)cc1OC | – | 80.5 µM | – | 91 µM | – | – | – | – | – | – | – | 41.8 µM | – | > 100 µM | > 100 µM | – | – | – | – | –
